In article PMC11761369 (bioRxiv, 2025):

Tests used:
BBB cells = assay: UPLC-MS of PepTGN and analogs after incubation with BBB cells; type: cell-based; conditions: UPLC-MS (Figure 6C)
[1] = type: cell-based; conditions: after 30 minutes incubation; overlaying with ER-marker (ERp57/ERp60 antibody)
bEND.3 cell line = assay: μMap profiling of PepTGN intracellular interactors; type: cell-based, mouse; conditions: 37 °C, 1 h incubation
[2] = system: clathrin-mediated endocytosis; assay: Microscopy of AA3H entry with inhibition of clathrin-mediated endocytosis; type: cell-based; conditions: Pitstop2 40 μM
CALCRL = CALCRL (Homo sapiens, UniProt O60894+Q16602); assay: Flow cytometry of FITC-labeled PepTGN internalization with blocking agents; type: cell-based; conditions: compared to non-binding isotype control
Chain of CALCRL (Q16602 23-461): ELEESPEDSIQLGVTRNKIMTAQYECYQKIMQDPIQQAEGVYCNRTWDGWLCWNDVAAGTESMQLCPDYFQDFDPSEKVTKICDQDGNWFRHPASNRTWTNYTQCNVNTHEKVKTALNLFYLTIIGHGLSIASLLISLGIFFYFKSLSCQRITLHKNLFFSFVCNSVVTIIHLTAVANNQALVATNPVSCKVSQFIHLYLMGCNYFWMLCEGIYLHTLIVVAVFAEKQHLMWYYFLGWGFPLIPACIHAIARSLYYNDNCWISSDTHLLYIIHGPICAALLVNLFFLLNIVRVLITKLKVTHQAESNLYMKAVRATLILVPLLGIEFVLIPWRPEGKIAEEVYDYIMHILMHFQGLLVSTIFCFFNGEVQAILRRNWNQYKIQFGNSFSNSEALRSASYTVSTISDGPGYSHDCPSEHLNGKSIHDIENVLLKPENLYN
Chain of CALCRL (O60894 27-148): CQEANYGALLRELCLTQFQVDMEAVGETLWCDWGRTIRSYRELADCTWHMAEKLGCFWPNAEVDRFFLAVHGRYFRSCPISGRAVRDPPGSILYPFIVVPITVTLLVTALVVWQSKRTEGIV

Molecule: AGNYKALHPHNG [T12A analog]
- +322 mass shift after incubation with BBB cells (BBB cells): did not display

Molecule: TGNYKALHPHNG [PepTGN]
- cellular localization [1]: distinct puncta
- interactor genes associated to ER and Golgi trafficking and secretory pathways (bEND.3 cell line): about 30%

Molecule: O=C1NC(=NS(=O)(=O)c2cccc3ccccc23)S/C1=C\c1ccc(Br)cc1 [Pitstop2]
- effect on AA3H internalization [2]: disrupted

B1: Erenumab: monoclonal antibody used in migraine therapy that targets CALCRL and inhibits CGRP binding (antibody, chains of the INN, looked up, V domains shown)
VH: QVQLVESGGGVVQPGRSLRLSCAASGFTFSSFGMHWVRQAPGKGLEWVAVISFDGSIKYSVDSVKGRFTISRDNSKNTLFLQMNSLRAEDTAVYYCARDRLNYYDSSGYYHYKYYGMAVWGQGTTVTVSS
VL: QSVLTQPPSVSAAPGQKVTISCSGSSSNIGNNYVSWYQQLPGTAPKLLIYDNNKRPSGIPDRFSGSKSGTSTTLGITGLQTGDEADYYCGTWDSRLSAVVFGGGTKLTVL
- effect of pre-incubation on PepTGN internalization (CALCRL): significantly decreased
